Test results reported in US12281070B2, “Water soluble antiviral and antimicrobial compound and process for preparation thereof” (priority 2020, dated 2025).

How the values were obtained:
[1] = tested on: PI-3 virus (enveloped virus); format: cell-based, Bovine parainfluenza virus
Oral toxicity LD50, mice = format: in vivo
Oral toxicity LD50, rat = format: in vivo
[2] = tested on: Bacillus subtilis (ATCC 6633); test: Evaluation of antimicrobial activity, B. subtilis; format: cell-based; settings: 10 mg/10 ml
[3] = Water solubility / dispersibility of the synthesized substance; format: physicochemical; settings: semi solid creamy substance as synthesized
[4] = tested on: Escherichia coli (ATCC 8739); test: Evaluation of antimicrobial activity, E. coli; format: cell-based; settings: 10 mg/10 ml
avian influenza = tested on: avian influenza; parameters: species or system poultry birds; settings: in vivo
[5] = tested on: Staphylococcus aureus (ATCC 6538); test: Evaluation of antimicrobial activity, S. aureus; format: cell-based; settings: 10 mg/10 ml
[6] = tested on: SARS CoV-2 NIV2020-770 isolate; format: cell-based; settings: 72 hours

CCCCCCCCCCCCCCCCC(=O)OC(O)CO (stereo not shown) [Formula II, 1,2-dihydroxyethyl heptadecanoate]
% Log reduction [1]: 99.25% | Log10 Reduction [1]: 2.12 Log10 | Virus Titer (Log10 TCID50/mL) [1]: 2.50 Log10 TCID50/mL | LD 50 (Oral toxicity LD50, mice): 4000 mg per kg wt | LD 50 (Oral toxicity LD50, rat): 4000 mg per kg wt | % reduction after 30 seconds ([2]; contact 30 seconds, inoculum 76000000 Cfu/ml): 27.63% | % reduction after 1 minute ([2]; contact 1 minute): 44.74% | % reduction after 5 minutes ([2]; contact 5 minutes): 59.21% | % reduction after 10 minutes ([2]; contact 10 minutes): 65.79% | % reduction after 20 minutes ([2]; contact 20 minutes): 99.9789% | solubility in water [3]: water soluble and/or water dispersible | % reduction after 30 seconds ([4]; contact 30 seconds, inoculum 70000000 Cfu/ml): 31.43% | % reduction after 1 minute ([4]; contact 1 minute): 55.71% | % reduction after 5 minutes ([4]; contact 5 minutes): 60% | % reduction after 10 minutes ([4]; contact 10 minutes): 64.29% | % reduction after 20 minutes ([4]; contact 20 minutes): 99.9851% | reduction in mortality of avian influenza infected birds (avian influenza): 92% | cytotoxicity (Vero CCL-81 cells): Dose dependent cytotoxicity | CC50 (Vero CCL-81 cells; 72 hours): 600 fold dilution | % reduction after 30 seconds ([5]; contact 30 seconds, inoculum 74000000 Cfu/ml): 31.08% | % reduction after 1 minute ([5]; contact 1 minute): 43.24% | % reduction after 5 minutes ([5]; contact 5 minutes): 54.05% | % reduction after 10 minutes ([5]; contact 10 minutes): 62.16% | % reduction after 20 minutes ([5]; contact 20 minutes): 99.9627% | inhibition of the RdRp-2 gene [6]: ~40%
